For the experiment, the system named is ERK phosphorylation. Briefly: Analysis of ERK phosphorylation (Alphascreen SureFire Phospho-ERK 1/2). The format is cell-based, human and mouse. To be noted: cells treated for 1 h; human melanoma cells, human and mouse colon cancer cells; read-out: Minimum concentration (nM) required for ≧80% inhibition of pERK. The method, then: This assay was carried out with human melanoma cells, human and mouse colon cancer cells. Cells were treated for 1 h with various concentrations of test compounds. ERK phosphorylation analysis was performed using the Alphascreen SureFire Phospho-ERK 1/2 Kit (Perkin Elmer), by following the manufacturer's instructions. % inhibition of ERK phosphorylation was determined as: 100−{(RFU test−RFU lysis buffer control)/(RFU vehicle treated control−RFU lysis buffer control)}×100. Percentage inhibition at concentrations of 0.01 nM, 0.03 nM, 0.1-0.9 nM, 1 nM to 3 nM, 4-100 nM, and >100 nM, for the stated examples is setworth here. The percentage inhibition at the above depicted concentrations for the compounds stated are given in the following groups.
On the technique in general: Bead proximity is the source of the signal in Alpha formats.
With `Cc1c(=O)n(C)c(Nc2ccc(I)cc2F)c2c(=O)[nH]c(=O)n(-c3cccc(C(=O)N4CCNCC4)c3)c12` [Compound 23, 5-((2-fluoro-4-iodophenyl)amino)-6,8-dimethyl-1-(3-(piperazine-1-carbonyl)phenyl)pyrido[4,3-d]pyrimidine-2,4,7(1H,3H,6H)-trione], the IC80 lay within 4 to 100 nM. The value for `Cc1c(=O)n(C)c(Nc2ccc(I)cc2F)c2c(=O)n(CC(=O)O)c(=O)n(-c3cccc(C(=O)NC4CC4)c3)c12` [Compound 74, 2-(1-(3-(cyclopropylcarbamoyl)phenyl)-5-((2-fluoro-4-iodophenyl)amino)-6,8-dimethyl-2,4,7-trioxo-1,2,6,7-tetrahydropyrido[4,3-d]pyrimidin-3(4H)-yl)acetic acid] was over 100 nM; that for `Cc1c(=O)n(C)c(Nc2ccc(I)cc2F)c2c(=O)[nH]c(=O)n(-c3cccc(C(=O)N4CCC(O)CC4)c3)c12` [Compound 18, 5((2-fluoro-4-iodophenyl)amino)-1-(3-(4-hydroxypiperidine-1-carbonyl)phenyl)-6,8-dimethylpyrido[4,3-d]pyrimidine-2,4,7(1H,3H,6H)-trione] was 4 to 100 nM. With `Cc1c(=O)n(C)c(Nc2ccc(I)cc2F)c2c(=O)n(C3CC3)c(=O)n(-c3cccc(C(=O)N4CCS(=O)(=O)CC4)c3)c12` [Compound 39, 3-cyclopropyl-1-(3-(1,1-dioxidothiomorpholine-4-carbonyl)phenyl)-5-((2-fluoro-4-iodophenyl)amino)-6,8-dimethylpyrido[4,3-d]pyrimidine-2,4,7(1H,3H,6H)-trione], the IC80 was 1 to 3 nM.

As to `Cc1c(=O)n(C)c(Nc2ccc(I)cc2F)c2c(=O)[nH]c(=O)n(-c3cccc(CCC(=O)NC4CC4)c3)c12` [Compound 19, N-cyclopropyl-3-(3-(5-((2-fluoro-4-iodophenyl)amino)-6,8-dimethyl-2,4,7-trioxo-3,4,6,7-tetrahydropyrido[4,3-d]pyrimidin-1(2H)-yl)phenyl)propanamide], the IC80 fell in the range of 4 to 100 nM. For the compound `CCn1c(=O)c2c(Nc3ccc(I)cc3F)n(C)c(=O)c(C)c2n(-c2cccc(C(=O)N3CCS(=O)(=O)CC3)c2)c1=O` [Compound 66, 1-(3-(1,1-dioxidothiomorpholine-4-carbonyl)phenyl)-3-ethyl-5-((2-fluoro-4-iodophenyl)amino)-6,8-dimethylpyrido[4,3-d]pyrimidine-2,4,7(1H,3H,6H)-trione], the IC80 was 0.01 nM. For `Cc1c(=O)n(C)c(Nc2ccc(I)cc2F)c2c(=O)n(C)c(=O)n(-c3cccc(CC(N)=O)c3)c12` [Compound 42, 2-(3-(5-((2-fluoro-4-iodophenyl)amino)-3,6,8-trimethyl-2,4,7-trioxo-3,4,6,7-tetrahydropyrido[4,3-d]pyrimidin-1(2H)-yl)phenyl)acetamide], the IC80 is 0.1 to 0.9 nM. The value for `Cc1c(=O)n(C)c(Nc2ccc(I)cc2F)c2c(=O)n(C)c(=O)n(-c3cccc(C4(C(N)=O)CC4)c3)c12` [Compound 79, 1-(3-(5-((2-fluoro-4-iodophenyl)amino)-3,6,8-trimethyl-2,4,7-trioxo-3,4,6,7-tetrahydropyrido[4,3-d]pyrimidin-1(2H)-yl)phenyl)cyclopropanecarboxamide] was 4 to 100 nM; that for `Cc1c(=O)n(C)c(Nc2ccc(I)cc2F)c2c(=O)n(C)c(=O)n(-c3cccc(CC(=O)N4CCC4)c3)c12` [Compound 46, 1-(3-(2-(azetidin-1-yl)-2-oxoethyl)phenyl)-5-((2-fluoro-4-iodophenyl)amino)-3,6,8-trimethylpyrido[4,3-d]pyrimidine-2,4,7(1H,3H,6H)-trione] was 0.01 nM; that for `Cc1c(Nc2ccc(I)cc2F)c2c(=O)[nH]c(=O)n(-c3cccc(C(F)(F)C(N)=O)c3)c2n(C)c1=O` [Compound 11, 2,2-difluoro-2-(3-(5-((2-fluoro-4-iodophenyl)amino)-6,8-dimethyl-2,4,7-trioxo-3,4,7,8-tetrahydropyrido[2,3-d]pyrimidin-1(2H)-yl)phenyl)acetamide] was 0.1 to 0.9 nM. Turning to `Cc1c(=O)n(C)c(Nc2ccc(I)cc2F)c2c(=O)n(C(F)F)c(=O)n(-c3cccc(C(=O)NC4CC4)c3)c12` [Compound 72, N-cyclopropyl-3-(3-(difluoromethyl)-5-((2-fluoro-4-iodophenyl)amino)-6,8-dimethyl-2,4,7-trioxo-3,4,6,7-tetrahydropyrido[4,3-d]pyrimidin-1(2H)-yl)benzamide], the IC80 lay within 4 to 100 nM. The value for `Cc1c(=O)n(C)c(Nc2ccc(I)cc2F)c2c(=O)n(C3CC3)c(=O)n(-c3cccc(CC(N)=O)c3)c12` [Compound 26, 2-(3-(3-cyclopropyl-5-((2-fluoro-4-iodophenyl)amino)-6,8-dimethyl-2,4,7-trioxo-3,4,6,7-tetrahydropyrido[4,3-d]pyrimidin-1(2H)-yl)phenyl)acetamide] was 4 to 100 nM; that for `Cc1c(Nc2ccc(I)cc2F)c2c(=O)n(C3CC3)c(=O)n(-c3cccc(C(F)(F)C(N)=O)c3)c2n(C)c1=O` [Compound 30, 2-(3-(3-cyclopropyl-5-((2-fluoro-4-iodophenyl)amino)-6,8-dimethyl-2,4,7-trioxo-3,4,7,8-tetrahydropyrido[2,3-d]pyrimidin-1(2H)-yl)phenyl)-2,2-difluoroacetamide] was 1 to 3 nM; that for `Cc1c(=O)n(C)c(Nc2ccc(I)cc2F)c2c(=O)n(C3CC3)c(=O)n(-c3cccc(C(=O)N4CCC4)c3)c12` [Compound 24, 1-(3-(azetidine-1-carbonyl)phenyl)-3-cyclopropyl-5-((2-fluoro-4-iodophenyl)amino)-6,8-dimethylpyrido[4,3-d]pyrimidine-2,4,7(1H,3H,6H)-trione] was 0.1 to 0.9 nM. Turning to `Cc1c(=O)n(C)c(Nc2ccc(I)cc2F)c2c(=O)n(CCO)c(=O)n(-c3cccc(C(=O)NC4CC4)c3)c12` [Compound 55, N-cyclopropyl-3-(5-((2-fluoro-4-iodophenyl)amino)-3-(2-hydroxyethyl)-6,8-dimethyl-2,4,7-trioxo-3,4,6,7-tetrahydropyrido[4,3-d]pyrimidin-1(2H)-yl)benzamide], the IC80 fell in the range of 4 to 100 nM. Under `Cc1c(=O)n(C)c(Nc2ccc(I)cc2F)c2c(=O)n(C)c(=O)n(-c3cccc([C@H](O)C(N)=O)c3)c12` [Compound 76, (S)-2-(3-(5-((2-fluoro-4-iodophenyl)amino)-3,6,8-trimethyl-2,4,7-trioxo-3,4,6,7-tetrahydropyrido[4,3-d]pyrimidin-1(2H)-yl)phenyl)-2-hydroxyacetamide] stands 4 to 100 nM. Consider `Cc1c(=O)n(C)c(Nc2ccc(I)cc2F)c2c(=O)[nH]c(=O)n(-c3cccc(C(=O)NC4CCOCC4)c3)c12` [Compound 13, 3-(5-((2-fluoro-4-iodophenyl)amino)-6,8-dimethyl-2,4,7-trioxo-3,4,6,7-tetrahydropyrido[4,3-d]pyrimidin-1(2H)-yl)-N-(tetrahydro-2H-pyran-4-yl)benzamide], for which the IC80 came to 0.01 nM. Under `Cc1c(=O)n(C)c(Nc2ccc(I)cc2F)c2c(=O)n(C)c(=O)n(-c3cccc(C(O)C(N)=O)c3)c12` (stereo not drawn) [Compound 47, 2-(3-(5-((2-fluoro-4-iodophenyl)amino)-3,6,8-trimethyl-2,4,7-trioxo-3,4,6,7-tetrahydropyrido[4,3-d]pyrimidin-1(2H)-yl)phenyl)-2-hydroxyacetamide] stands 0.1 to 0.9 nM.

Take `Cc1c(=O)n(C)c(Nc2ccc(I)cc2F)c2c(=O)[nH]c(=O)n(-c3cccc(OCC(=O)NC4CC4)c3)c12` [Compound 6, N-cyclopropyl-2-(3-(5-((2-fluoro-4-iodophenyl)amino)-6,8-dimethyl-2,4,7-trioxo-3,4,6,7-tetrahydropyrido[4,3-d]pyrimidin-1(2H)-yl)phenoxy)acetamide]: the IC80 came out at 0.01 nM. Take `Cc1c(=O)n(C)c(Nc2ccc(I)cc2F)c2c(=O)n(C)c(=O)n(-c3cccc(C(=O)NC4CCOC4)c3)c12` (stereo not drawn) [Compound 51, 3-(5-((2-fluoro-4-iodophenyl)amino)-3,6,8-trimethyl-2,4,7-trioxo-3,4,6,7-tetrahydropyrido[4,3-d]pyrimidin-1(2H)-yl)-N-(tetrahydrofuran-3-yl)benzamide]: the IC80 is 0.01 nM. Turning to `Cc1c(=O)n(C)c(Nc2ccc(I)cc2F)c2c(=O)[nH]c(=O)n(-c3cccc(C(=O)N4CCS(=O)(=O)C4)c3)c12` [Compound 17, 1-(3-(1,1-dioxidothiazolidine-3-carbonyl)phenyl)-5-((2-fluoro-4-iodophenyl)amino)-6,8-dimethylpyrido[4,3-d]pyrimidine-2,4,7(1H,3H,6H)-trione], the IC80 lay in the range of 0.1 to 0.9 nM.

For the compound `Cc1c(=O)n(C)c(Nc2ccc(I)cc2F)c2c(=O)n(C)c(=O)n(-c3cccc(CC(=O)N(C)C)c3)c12` [Compound 44, 2-(3-(5-((2-fluoro-4-iodophenyl)amino)-3,6,8-trimethyl-2,4,7-trioxo-3,4,6,7-tetra hydropyrido[4,3-d]pyrimidin-1(2H)-yl)phenyl)-N,N-dimethylacetamide], the IC80 lay within 0.1 to 0.9 nM. Under `Cc1c(=O)n(C)c(Nc2ccc(I)cc2F)c2c(=O)n(C)c(=O)n(-c3cccc(C(=O)NC4COC4)c3)c12` [Compound 49, 3-(5-((2-fluoro-4-iodophenyl)amino)-3,6,8-trimethyl-2,4,7-trioxo-3,4,6,7-tetra hydropyrido[4,3-d]pyrimidin-1(2H)-yl)-N-(oxetan-3-yl)benzamide] stands 0.01 nM. In the case of `Cc1c(=O)n(C)c(Nc2ccc(I)cc2F)c2c(=O)[nH]c(=O)n(-c3cccc(C(=O)N4CCS(=O)(=O)CC4)c3)c12` [Compound 8, 1-(3-(1,1-dioxidothiomorpholine-4-carbonyl)phenyl)-5-((2-fluoro-4-iodophenyl)amino)-6,8-dimethylpyrido[4,3-d]pyrimidine-2,4,7(1H,3H,6H)-trione], the IC80 lay in the range of 1 to 3 nM.

These data come from US9428499B2, “Heterocyclyl compounds as MEK inhibitors” (LUPIN LIMITED, priority 2012, dated 2016).
